Experimental findings from US20040121410A1, “Pain signaling molecules” (priority 2002, published 2004) are described below.

Read-outs that look alike come from different tables or passages of the source. Where a SMILES comes first, the peptide text is derived from it. Where no end group is shown, it is not given here. [ ]: non-standard residue; d: D form. pGlu = O=C1CC[C@@H](C(=O)O)N1

The target in one assay is T1, MrgA1 (Mus musculus, UniProt Q91WW5).
T1 construct: expressed in transfected cells
T1 sequence (Q91WW5 1-304): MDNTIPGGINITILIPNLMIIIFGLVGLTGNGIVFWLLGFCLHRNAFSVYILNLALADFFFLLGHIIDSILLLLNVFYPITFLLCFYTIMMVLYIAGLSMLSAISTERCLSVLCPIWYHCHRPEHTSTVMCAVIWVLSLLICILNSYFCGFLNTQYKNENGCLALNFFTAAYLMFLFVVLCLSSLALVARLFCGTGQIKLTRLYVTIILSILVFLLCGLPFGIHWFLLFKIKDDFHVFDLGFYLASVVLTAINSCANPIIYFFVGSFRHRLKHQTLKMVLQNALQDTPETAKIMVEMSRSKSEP
The experiment in a line: calcium-mobilization assay (FLEXstation, Fura-2/AM) in HEK-MrgA1 cells. It counts as cell-based. The conditions noted are these: for EC50 MrgA1: Table 1, FLEXstation assay, means ± SEM, Inactive = no activation detected at concentrations up to 10 mM. The procedure: (§1) To address the questions of the ligand selectivity of the MrgC11 receptor, human embryonic kidney (HEK) 293 cells stably expressing either MrgA1 or MrgC11 were established. Neuropeptides were screened to identify ligands and agonists.
(§2) HEK293 cells were transfected with cDNA encoding the MrgAl-GFP, mNPFF2-GFP or MrgC11-GFP in pcDNA3.1/Zio(+) plasmid (Invitrogen) using the FuGENE6 transfection reagent (Roche Molecular Biomolecules). The transfected cells were selected with 400 μg/ml zeocin in DMEM supplemented with 10% FBS. Each cloned cell was further selected for membrane localization of receptor-GFP fusion protiens.
(§3) The selected cells were maintained in the same medium supplemented with 200 μg/ml zeocin. The stable cell lines were designated HEK-MrgA1, HEK-NPFF2 and HEK-MrgC11.
(§4) To identify putative ligands for MrgC11 and MrgA1 receptors, HEK-MrgC11 or HEKMrgA1 stable cell lines were screened in a calcium-mobilization assay using a fluorescence-imaging plate reader (FLEXstation). Briefly, HEK-MrgA1 or HEK-MrgC11 were plated in 96-black-well plates (Corning) and grown to confluence. After incubation with Fura-2/AM for >20 min, cells were washed and equilibrated for 20 min with HBSS (Hanks' balanced salt solution) assay buffer. The fluorescence emission caused by intracellular calcium mobilization elicited by agonists was determined by using a fluorometric imaging plate reader, Flexstation (Molecular Devices). All peptides were from Phoenix Pharmaceuticals (St. Joseph, Mo.), Bachem, American Peptide (Sunnyvale, Calif.), or Sigma.

The target of the next assay is T2, MrgC11 (Mus musculus, UniProt Q8CIP3).
T2 construct: A full-length MrgC11 cDNA was cloned from the newborn DRG cDNA library; expressed in transfected cells
T2 sequence (Q8CIP3 1-322): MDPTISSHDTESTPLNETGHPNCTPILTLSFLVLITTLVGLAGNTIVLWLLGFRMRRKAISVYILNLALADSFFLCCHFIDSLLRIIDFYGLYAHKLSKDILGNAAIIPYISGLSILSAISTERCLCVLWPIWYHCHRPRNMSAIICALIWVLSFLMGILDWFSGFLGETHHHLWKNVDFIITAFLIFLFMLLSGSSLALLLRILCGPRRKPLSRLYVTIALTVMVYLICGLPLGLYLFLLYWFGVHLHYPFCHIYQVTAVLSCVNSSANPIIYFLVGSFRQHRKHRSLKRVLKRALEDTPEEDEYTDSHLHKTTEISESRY
Kind of assay: calcium-mobilization assay (FLEXstation, Fura-2/AM) in HEK-MrgC11 cells. The settings on record: for activation of MrgC11 (in words): calcium response. It is filed as cell-based. The procedure:
as §1, §2, §3, §4

Setting [1] is: Table 2, chirally modified FMRFa peptides, HEK-MrgA1 cells, mean ± SEM, triplicate, read-out: EC50 MrgA1.
Where [2] appears, read: Table 2, chirally modified FMRFa peptides, HEK-MrgC11 cells, mean ± SEM, triplicate, read-out: EC50 MrgC11.
The mark [3] stands for this setting: Table 1, HEK-MrgC11 cells, FLEXstation assay, means ± SEM, triplicate, Inactive = no activation detected at concentrations up to 10 mM, read-out: EC50 MrgC11.
The mark [4] stands for this setting: Table 2, chirally modified FMRFa peptides, HEK-MrgA1 cells, mean ± SEM, triplicate.

One may read the EC50 as the concentration needed to bring the measured effect to its halfway point. As to `CSCC[C@H](NC(=O)[C@H](N)Cc1ccccc1)C(=O)N[C@@H](CCCNC(=N)N)C(=O)N[C@@H](Cc1ccccc1)C(N)=O` [(D)F-M-R-Fa], the EC50 at MrgA1 (setting [1]) was 882 ± 55 nM; at MrgC11 (setting [2]), 108 ± 1 nM. In the case of `N=C(N)NCCC[C@H](NC(=O)CNC(=O)[C@@H]1CCC(=O)N1)C(=O)N[C@@H](Cc1ccccc1)C(N)=O` [AnthoRF-amide] ([pGlu]GRF-NH2), the “EC50 MrgA1” value at MrgA1 (HEK-MrgA1 cells, triplicate) was “Inactive”. Moreover, the EC50 on MrgC11 (setting [3]) is 16 ± 6 nM.

Take `CSCC[C@H](NC(=O)[C@H](Cc1ccccc1)NC(=O)CNC(=O)CNC(=O)[C@@H](N)Cc1ccc(O)cc1)C(=O)N[C@@H](CCCNC(=N)N)C(=O)N[C@@H](CCCNC(=N)N)C(=O)N[C@H](C(=O)NCC(=O)N[C@@H](CCCNC(=N)N)C(=O)N1CCC[C@H]1C(=O)N[C@@H](CCC(=O)O)C(=O)N[C@@H](Cc1c[nH]c2ccccc12)C(=O)N[C@@H](Cc1c[nH]c2ccccc12)C(=O)N[C@@H](CCSC)C(=O)N[C@@H](CC(=O)O)C(=O)N[C@@H](Cc1ccc(O)cc1)C(=O)N[C@@H](CCC(N)=O)C(=O)N[C@@H](CCCCN)C(=O)N[C@@H](CCCNC(=N)N)C(=O)N[C@@H](Cc1ccc(O)cc1)C(=O)NCC(=O)O)C(C)C` [BAM-22P]: the 50% effective concentration (EC50) at MrgA1 turned out to be 2540 nM; on MrgC11, 26 ± 10 nM.

On to `CSCC[C@@H](NC(=O)[C@@H](N)Cc1ccccc1)C(=O)N[C@@H](CCCNC(=N)N)C(=O)N[C@@H](Cc1ccccc1)C(N)=O` [F-(D)M-R-Fa], for which the EC50 on MrgA1 (setting [1]) was determined as 1260 nM; at MrgC11 (setting [2]) it was 11 ± 4 nM. For `CSCC[C@H](NC(=O)[C@@H](N)Cc1ccccc1)C(=O)N[C@@H](CCCNC(=N)N)C(=O)N[C@H](Cc1ccccc1)C(N)=O` [F-M-R-(D)Fa], the EC50 on MrgA1 (setting [1]) was 643 ± 80 nM. Further, the “EC50 MrgC11, nM” value on MrgC11 (Table 2, chirally modified FMRFa peptides, HEK-MrgC11 cells, mean ± SEM, triplicate) is given as “Inactive”. Consider `CC(C)C[C@H](NC(=O)CNC(=O)[C@H](Cc1ccccc1)NC(=O)[C@H](CO)NC(=O)[C@H](CC(N)=O)NC(=O)[C@H](Cc1c[nH]c2ccccc12)NC(=O)[C@H](CC(N)=O)NC(=O)[C@H](Cc1ccc(O)cc1)NC(=O)[C@H](CC(N)=O)NC(=O)[C@@H]1CCCN1C(=O)[C@H](CC(C)C)NC(=O)[C@H](CC(=O)O)NC(=O)[C@@H](N)CCCCN)C(=O)N[C@@H](CCCNC(=N)N)C(=O)N[C@@H](Cc1ccccc1)C(N)=O` [Kiss(107-121)], for which the “EC50 MrgA1” value at MrgA1 (HEK-MrgA1 cells, triplicate) is “Inactive”. Also, at MrgC11 (setting [3]), the EC50 turned out to be 102 ± 24 nM. For `CC(C)C[C@H](NC(=O)CNC(=O)[C@H](Cc1ccccc1)NC(=O)[C@H](CO)NC(=O)[C@H](CC(N)=O)NC(=O)[C@H](Cc1c[nH]c2ccccc12)NC(=O)[C@H](CC(N)=O)NC(=O)[C@@H](N)Cc1ccc(O)cc1)C(=O)N[C@@H](CCCNC(=N)N)C(=O)N[C@@H](Cc1ccccc1)C(N)=O` [Kiss(112-121)], in that order: “Inactive” and 50 ± 4 nM.

For `CC(C)C[C@H](NC(=O)[C@@H](N)Cc1ccccc1)C(=O)N[C@@H](Cc1ccccc1)C(=O)N[C@@H](CCC(N)=O)C(=O)N1CCC[C@H]1C(=O)N[C@@H](CCC(N)=O)C(=O)N[C@@H](CCCN=C(N)N)C(=O)N[C@@H](Cc1ccccc1)C(N)=O` [NPFF], the EC50 on MrgA1 came to 2150 nM; on MrgC11, 54 ± 5 nM.

Consider `N=C(N)NCCC[C@H](N)C(=O)N[C@@H](Cc1ccccc1)C(N)=O` [R-Fa], for which the “EC50 MrgA1, nM” value on MrgA1 (setting [4]) is given as “Inactive”; on MrgA1 (Table 2, chirally modified FMRFa peptides, HEK-MrgA1 cells, mean ± SEM, triplicate, listed as RFa) it was “not able to activate”. Also, at MrgC11, the EC50 came out at 460 ± 35 nM. Take `N=C(N)NCCC[C@H](N)C(=O)N[C@@H](Cc1ccccc1)C(=O)O` [R-F—OH]: the “EC50 MrgA1, nM” value is recorded as “Inactive” at MrgA1 (setting [4]) and “not able to activate” on MrgA1 (Table 2, chirally modified FMRFa peptides, HEK-MrgA1 cells, mean ± SEM, triplicate, listed as RF-OH). Besides, the EC50 at MrgC11 (setting [2]) is 632 ± 124 nM. On to `CC(C)C[C@H](NC(=O)[C@H](CC(N)=O)NC(=O)[C@@H]1CCCN1C(=O)[C@@H](N)C(C)C)C(=O)N1CCC[C@H]1C(=O)N[C@@H](CCC(N)=O)C(=O)N[C@@H](CCCNC(=N)N)C(=O)N[C@@H](Cc1ccccc1)C(N)=O` [RFRP-3], for which the “EC50 MrgA1” value at MrgA1 (HEK-MrgA1 cells, triplicate) is reported as “Inactive”. Also, the EC50 at MrgC11 (setting [3]) amounted to 113 ± 5 nM. “MPHSFANLPLRF-NH2 [RFRP-1] [listing 1 of 2 here]”: the “EC50 MrgA1” value on MrgA1 (HEK-MrgA1 cells, triplicate) is recorded as “Inactive”.

As to “MPHSFANLPLRF-NH2 [RFRP-1] [listing 2 of 2 here]”, the EC50 at MrgC11 (setting [3]) came to 1240 nM. As for α-MSH, the “activation of MrgC11 (in words)” value at MrgC11 (HEK-MrgC11 cells) is “not activated”. Still for that read-out and setting: then β-MSH, with “not activated”.
